# From US7153839B2, “Method of protecting erythricytes, in particular for improvement of blood cytopenia” (Biocell Laboratories, priority 2000, dated 2006)
# Tests used:
# human thrombocytes = experiment: Aggregation of thrombocytes induced by arachidonic acid in vitro; type: cell-based; conditions: Table 2; 0.06 mg per tube
# Protocol: We studied the anti-inflammatory action of nucleic acids on the model of thrombocyte aggregation in vitro by the method of Born (Born L.V.R. The aggregation of blood platelets by diphosphate and its reversal, Nature, […], P. 327, 1962). Venous human blood was taken in silicon tubes of Becton Dickson, which contained a 3.8% solution of sodium citrate. In order to receive thrombocytic-rich plasma, citrate blood was centrifuged at 1500 rev/mm for 7 minutes. Plasma free of thrombocytes was obtained by centrifuging 2.0 ml of plasma taken from medium layers for 15 minutes at 3000 rev/mm. We counted the number of thrombocytes in the thrombocytic-containing plasma, which was later diluted by the thrombocyte-free plasma to the final concentration […].
# An Aggregometer produced by “Tromlite” (Poland) was used for thrombocyte aggregation. In order to induce aggregation, arachidonic acid was diluted in Michaelis buffer in the proportion 1 mg/ml. Two tubes were inserted in the aggregometer, one of which contained 0.2 ml of thrombocyte-containing plasma, while the other one had 0.2 ml of thrombocyte-free plasma and 0.1 ml of isotonic solution of sodium chloride. […] Then, the light-transparency of thrombocyte-containing plasma was measured during 5 minutes, which indicated the stage of thrombocyte aggregation. […]
# [1] = test system: carrageenan-induced swelling of leg; experiment: Local inflammation (leg swelling) provoked by carrageenan in mice; type: in vivo, BALB-line mice; conditions: for % inhibition of swelling: 0.4 mg per mouse (20 mg/kg), 20 mg/kg
# Protocol: To study the anti-inflammatory action of drugs, we used the model of local inflammation in mice. Inflammation in BALB-line mice was modeled with the help of carrageenan, a classical phlogogenic agent. 30 minutes before the injection, the mice were injected intra-abdominally with drug, which was dissolved in […] of physiological solution (PS). Carrageenan […] produced by Serva Fein Biochemica (Germany) was prepared in the form of a 1% solution in PS. The obtained viscous solution, 40 mcl, was injected subplantally in the left back leg. The right, intact leg was taken as control. 4 hours later after the carrageenan injection, the mice were killed via decapitation, and their back legs were detached from the bodies on the same level, a little higher the ankles. After that, the legs were carefully weighted, with 1 mg accuracy. Obtained results were statistically processed by the MultiFac 2.2. SPSS 8/0 software. The anti-inflammatory effect of the drug was calculated by the formula:
# [formula] • Vk—average increase of volume (mass) of the swollen leg in control mice • Vo—average increase of volume (mass) of the swollen leg in treated mice
# In the first test, mice were divided into 8 groups. The first group consisted of control animals, which were injected intra-abdominally with 2 ml of PS. Also, […] of PS was injected in the left leg. This group was studied to determine the influence of injection on the course of inflammation in a leg. The second group, control with LPS, took […] of PS intra-abdominally and received LPS injections in the left leg. The third group took […] of aspirin dissolved in PS in the concentration 0.4 mg per mouse. In the fourth, fifth and sixth groups, yeast RNA-D was dissolved in PS in respective concentrations 5, 10, and 15 mg in 2 ml of PS per animal. LPS was injected in the left leg to provoke swelling. The seventh and eighth groups were treated respectively by DNA-TC and DNA-EC, which were injected in the concentration 15 mg per mouse, as explained above for RNA-treated groups.
# The right legs were left intact. 4 hours later, the animals were decapitated. […]
# NO-synthetase (NOS) [2] = experiment: NOS activity in mouse blood plasma after carrageenan injection; type: in vivo; conditions: 320 min after carrageenan; LPS control 110.48
# Protocol: (§1) […] We tested the influence of yeast RNA on the activity of NO-synthetase ferment (NOS) in blood plasma and in erythrocytes, as well as on the content in blood plasma of free arachidonic acid and products of its oxide metabolism, carried out in lypoxygenase (leukotriene C4 (LTC4)) and cyclooxygenase (thromboxane B2 (T×B2)) ways.
# (§2) The activity in blood plasma and erythrocytes of the enzyme NO-synthetase was measured by colometric method applied to the outcome of reaction, nitrite anion. (Yan L., Vandivier R. W., Suffredini A. F., Danner R. L., Human polymorphonuclear leukocytes lack detectable nitric oxide synthetase activity. J. Immunol., 15; 153(4): 1825–1834; 1994). […] The reaction was initiated by adding 0.1 ml of a probe containing 500 microgram of general protein determined by Bredford method. […]
# (§3) Nitrite anion was determined using the reagent of Gris in colometric reaction as decribed in Green et al. (Green L. C., Waagner D. A., Glogowski J. et al., Analysis of nitrate, nitrite and [15N] nitrate in biological fluids, Anal. Biochem., 126(1): 131–138;1982). […] In 5 minutes after mixing, the extinction at 543 hm was measured. The quantity of NO2 was measured by standard curve built for NaNO2.
# NO-synthetase (NOS) [3] = experiment: NOS activity in mouse erythrocytes after carrageenan injection; type: in vivo; conditions: 320 min after carrageenan; LPS control 2.232
# Protocol: as §1, §2, §3
# free arachidonic acid = experiment: Free arachidonic acid in mouse blood plasma after carrageenan injection; type: in vivo; conditions: 320 min after carrageenan; LPS control 3.37
# Protocol: as §1
# (§4) The content of free arachidonic acid (AA) was measured by two-dimensional thin-layer chromatography (TLC) as discussed in Tsunamoto et al. (Tsunamoto K., Todo S., Imashuku S. Separation of prostaglandines and thromboxane by two-dimensional thin-layer chromatography. J. Chromatog. 3; 417(2); 414–419; 1987. The content of stable metabolite of thromboxane A2 (TXB2) was studied in probes by radio-immune method with TXB2 [^3H] RIA Kit, by Amersham International PLC (England) (McCann D. S., Tokarsky J., Sorkin R. P., Radioimmunoassay for plasma thromboxane B2. Clin. Chem., 27(8): 1417–1420, 1981). The content of LTC4 was tested in probes by radio-immune method with LTC4 [^3H] RIA Kit by Du Pont Ltd. Hertfordshire, (UK) (Levine L., Morgan R. A., Levis R. A. et al., Radioimmunoassay of the leukotrienes of slow reactivity substance of anaphylaxis. Proc. Natl. Acad. Sci. USA. 78(12): 7692–7696; 1981).
# thromboxane B2 = experiment: Thromboxane B2 in mouse blood plasma after carrageenan injection; type: in vivo; conditions: 320 min after carrageenan; LPS control 358.240
# Protocol: as §1, §4
# leukotriene C4 = experiment: Leukotriene C4 in mouse blood plasma after carrageenan injection; type: in vivo; conditions: 320 min after carrageenan; LPS control 226.78
# myeloperoxydase = experiment: Myeloperoxydase activity in the ischemized part of myocardium; type: in vivo, rats; conditions: 30 minutes occlusion, 1 hour reperfusion; control 211.8+16.7
# Excerpt: The mieloperoxydase activity (MPA) was studied in myocardium using the method of Bradley et al. (Bradley P. P., Priebet D. A., Christensen R. D. et al., Measurement of cutateous inflammation: estimation of neutrophil content with an enzyme marker, J. Invest. Dermatol., 78(3): 206–209; 1982) in the modification by Grisfwold et al. (Griswold D. E., Hillegass L. M., Hill D. E. et al., Method for quantification of myocardial infarction and inflammatory cell infiltration in rat cardial tissue, J. Pharmacol. Methods, 20(3): 225–235, 1988). For this purpose, the heart was extracted and rinsed in physiological solution, which was cooled to 0° C. After rinsing, a section of myocardium (1 g of the tissue) in the central zone of ischemia was cut out and frozen to −30° C. The final fraction was prepared as a 10% haemogenate with extractive buffer containing 0.5% hexadecyltrimethyl ammonium bromide (pH 6.0) at room temperature. […]
# The upper fraction (30 microliters) was used for a reaction with 0.167 mg/ml of O-dianisodine in 50 millimole/l of potassium phosphate buffer (pH 6.0). […] The reaction had been continuously tested for 5 minutes at 460 hm wave length, and with readings taken every minute. A chart indicating the readings was prepared. A unit of MPA was defined as the quantity of ferment, which destroys 1 micromole/min H2O2 at 25° C. The data was calculated as MPA per 1 gram of tissue. […]
compound,measurement,setting,value
"CC(=O)Oc1ccccc1C(=O)O [Aspirin, aspirin]","inhibition of thrombocyte aggregation (index of aggregation), M",human thrombocytes,38.66%
same,% inhibition of swelling,[1],18.03%
same,% inhibition of swelling,[1]; listed as aspirin,18.03%
same,increase of mass of the swollen leg,"[1]; 0.4 mg per mouse intra-abdominally, 4 hours after carrageenan, Control + LPS 43.31",35.5 +
same,"activity of NOS in blood plasma, M",NO-synthetase (NOS) [2],42.24 picomol per 1 min per 1 mg of protein
same,"activity of NOS in erythrocytes, M",NO-synthetase (NOS) [3],3.613 picomol per 1 min per 1 mg of protein
same,content of free arachidonic acid in blood plasma,free arachidonic acid,2.64 nanomol per 1 mg of protein
same,content of thromboxane B2 in blood plasma,thromboxane B2,153.903 picomol per 1 mg of protein
same,content of leukotriene C4 in blood plasma,leukotriene C4,93.99 picomol per 1 mg of protein
same,activity of myeloperoxydase in ischemized myocardium,myeloperoxydase,176.1+5.9 units per 1 g of tissue
